Experimental findings from patent US10544095B2 (Pfizer Inc., priority 2015, dated 2020) are described below.

Sequence of hTDO2 in human glioblastoma A172 cells (P48775 whole entry): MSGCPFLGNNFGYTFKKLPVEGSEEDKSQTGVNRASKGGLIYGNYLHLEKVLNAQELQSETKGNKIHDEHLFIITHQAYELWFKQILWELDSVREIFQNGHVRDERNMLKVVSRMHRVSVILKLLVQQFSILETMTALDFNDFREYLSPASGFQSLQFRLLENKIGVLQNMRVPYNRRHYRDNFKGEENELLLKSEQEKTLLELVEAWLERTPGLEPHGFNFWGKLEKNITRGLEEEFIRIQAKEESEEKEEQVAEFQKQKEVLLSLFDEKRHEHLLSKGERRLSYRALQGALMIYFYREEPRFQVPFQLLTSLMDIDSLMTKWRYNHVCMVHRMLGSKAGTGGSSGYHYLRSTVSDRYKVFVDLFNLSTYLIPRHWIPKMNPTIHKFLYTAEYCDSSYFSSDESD

The target of the test is hTDO2 in human glioblastoma A172 cells (Homo sapiens (Human), UniProt P48775). Description: Cellular assay for TDO2 activity determination in A172 cells. In kind it is cell-based. The conditions noted are these: overnight incubation, kynurenine absorbance at 480 nm. How it is done:
The compounds of formula I inhibit the activity of human TDO2 in cells that constitutively express TDO2, such as A172 cells. A172 is a cell line derived from human brain glioblastoma cells. The cells are available from the American Type Culture Collection (ATCC®) as CRL-1620™.
The assay (adapted from Pilotte L et al., Proc Natl Acad Sci USA, 2012, 109(7), 2497-502) was performed in 96-well flat bottom plates seeded with human glioblastoma A172 cells, naturally expressing hTDO2 (prepared as described in Tilman et al., Mol Cancer, 2007, 17(6), 80), at a concentration of 1.25×10^4 cells/well in a final volume of 200 μL. To determine TDO, the cells were incubated overnight at 37° C. at 5% CO2 in IMDM (Invitrogen) supplemented with 2% FBS and 2% penicillin/streptomycin in the presence of the compounds of the present invention, at different concentrations.
The plates were then centrifuged 5 min at 1000 rpm, and 100 μL of the supernatant were collected in a conical plate, 30 μL of TCA 30% were added and a further centrifuged at 3000×g for 10 minutes. 100 μL of the supernatant were collected in a flat bottomed plate and 100 μL of 2% (w/v) 4-(dimethylamino)-benzaldehyde in acetic acid and incubated for 5 min at room temperature. Kynurenine concentrations were determined by measuring the absorbance at 480 nm. A standard curve was made with pure kynurenine. The TDO activity was measured as described above using ten serial concentrations of the compounds of the present invention. Data were fitted using the Prism™ software (GraphPad Software, Inc.) using standard parameters.
`CN(CCC(N)=O)S(=O)(=O)c1ccc(-c2c[nH]c3cc(F)ccc23)cc1` [Example 27, 3-(4-(6-fluoro-1H-indol-3-yl)-N-methylphenylsulfonamido)-propanamide]: the IC50 (commonly the concentration at which inhibition is half-maximal) was found to be 160 nM.

The molecule `O=S(=O)(c1ccc(-c2c[nH]c3cc(F)ccc23)cc1)N1CCOCC(O)C1` (stereo not shown) [Example 118, 4-((4-(6-fluoro-1H-indol-3-yl)phenyl)sulfonyl)-1,4-oxazepan-6-ol] showed a concentration for half-maximal inhibition (IC50) of 89 nM. With `CC(C)CC(=O)n1cc(-c2ccc(S(=O)(=O)N3CCNCC3)cc2)c2ccc(F)cc21` [Example 52, 1-(6-fluoro-3-(4-(piperazin-1-ylsulfonyl)phenyl)-1H-indol-1-yl)-3-methylbutan-1-one], it took 1700 nM to reach half-maximal inhibition (IC50). In turn, `O=C(CCNS(=O)(=O)c1ccc(-c2c[nH]c3cc(F)ccc23)cc1)N1C[C@@H](O)[C@@H](O)C1` [Example 169, N-(3-((cis)-3,4-dihydroxypyrrolidin-1-yl)-3-oxopropyl)-4-(6-fluoro-1H-indol-3-yl)benzenesulfonamide] gave an IC50 of 511 nM.

Turning to `CN(C)CCN1CCN(S(=O)(=O)c2ccc(-c3c[nH]c4cc(F)ccc34)cc2)CC1=O` [Example 149, 1-(2-(dimethylamino)ethyl)-4-((4-(6-fluoro-1H-indol-3-yl)phenyl)sulfonyl)piperazin-2-one], the IC50 was 443 nM. Next, `O=S(=O)(c1ccc(-c2c[nH]c3cc(F)ccc23)cc1)N1CCNCC1CO` (stereo not shown) [Example 13, (1-((4-(6-fluoro-1H-indol-3-yl)phenyl)sulfonyl)piperazin-2-yl)methanol]: 210 nM; `Cn1nccc1C1(O)CCN(S(=O)(=O)c2ccc(-c3c[nH]c4cc(F)ccc34)cc2)C1` (stereo not shown) [Example 113, 1-((4-(6-fluoro-1H-indol-3-yl)phenyl)sulfonyl)-3-(1-methyl-1H-pyrazol-5-yl)pyrrolidin-3-ol]: 90500 nM. `N[C@@H]1CN(C(=O)CCNS(=O)(=O)c2ccc(-c3c[nH]c4cc(F)ccc34)cc2)C[C@H]1F` [Example 174, (+)-N-(3-((3R,4R)-3-amino-4-fluoropyrrolidin-1-yl)-3-oxopropyl)-4-(6-fluoro-1H-indol-3-yl)benzenesulfonamide] gave an IC50 of 383 nM. Next, `Cc1noc(CNS(=O)(=O)c2ccc(-c3c[nH]c4cc(F)ccc34)cc2)n1` [Example 155, 4-(6-fluoro-1H-indol-3-yl)-N-((3-methyl-1,2,4-oxadiazol-5-yl)methyl) benzenesulfonamide]: 186 nM; `CNCCc1cc(-c2c[nH]c3cc(F)ccc23)ccc1S(N)(=O)=O` [Example 140, 4-(6-fluoro-1H-indol-3-yl)-2-(2-(methylamino)ethyl)-benzenesulfonamide]: 541 nM; `O=S(=O)(NCCO)c1ccc(-c2c[nH]c3cc(F)ccc23)c(Cl)c1` [Example 158, 3-chloro-4-(6-fluoro-1H-indol-3-yl)-N-(2-hydroxyethyl) benzenesulfonamide]: 283 nM. For the molecule `NCCNS(=O)(=O)c1cc(-c2c[nH]c3cc(F)ccc23)ccc1F` [Example 43, N-(2-aminoethyl)-2-fluoro-5-(6-fluoro-1H-indol-3-yl)-benzenesulfonamide], half-maximal inhibition (IC50) was put at 410 nM. Turning to `O=S(=O)(c1ccc(-c2c[nH]c3cc(F)ccc23)cc1)N1CCNC(CO)C1` (stereo not shown) [Example 12, (4-((4-(6-fluoro-1H-indol-3-yl)phenyl)sulfonyl)piperazin-2-yl)-methanol], inhibition was half-maximal at 140 nM (IC50).

Consider `CCc1cc(-c2c[nH]c3cc(F)ccc23)ccc1S(=O)(=O)NCCC(N)=O` [Example 162, 3-(2-ethyl-4-(6-fluoro-1H-indol-3-yl)phenylsulfonamido)-propanamide], for which half-maximal inhibition (IC50) required 405 nM. For `O=S(=O)(c1ccc(-c2c[nH]c3cc(F)ccc23)cc1)N1CCOC[C@@H]1CO` [Example 112, (S)-(4-((4-(6-fluoro-1H-indol-3-yl)phenyl)sulfonyl)morpholin-3-yl)methanol], it took 116 nM to reach half-maximal inhibition (IC50).

Molecule `CS(=O)(=O)c1cccc(-c2c[nH]c3cc(F)ccc23)c1` [Example 31, 6-fluoro-3-(3-(methylsulfonyl)phenyl)-1H-indole] came in with an IC50 of 740 nM. Molecule `O=S(=O)(c1ccc(-c2c[nH]c3cc(F)ccc23)cc1)N1C[C@@H](F)C[C@H]1CO` [Example 123, ((2S,4S)-4-fluoro-1-((4-(6-fluoro-1H-indol-3-yl)phenyl)sulfonyl)pyrrolidin-2-yl)methanol] returned an IC50 of 138 nM.

`C[C@@H](O)[C@H](C)N(CCO)S(=O)(=O)c1ccc(-c2c[nH]c3cc(F)ccc23)cc1` [Example 111, 4-(6-fluoro-1H-indol-3-yl)-N-((2S,3R)-3-hydroxybutan-2-yl)-N-(2-hydroxyethyl)benzene sulfonamide]: the midpoint of inhibition, the IC50, lay at 146 nM.

Molecule `Cc1cc(S(=O)(=O)N2CCNCC2)ccc1-c1c[nH]c2cc(F)ccc12` [Example 25, 6-fluoro-3-(2-methyl-4-(piperazin-1-ylsulfonyl)-phenyl)-1H-indole] displayed an IC50 of 1400 nM. For `O=C1CCCN1CC1(O)CCN(S(=O)(=O)c2ccc(-c3c[nH]c4cc(F)ccc34)cc2)C1` (stereo not shown) [Example 127, 1-((1-((4-(6-fluoro-1H-indol-3-yl)phenyl)sulfonyl)-3-hydroxypyrrolidin-3-yl)methyl)pyrrolidin-2-one], the IC50 was found to be 85500 nM. Consider `COc1cc(-c2c[nH]c3cc(F)ccc23)cc(S(=O)(=O)NCCN)c1` [Example 61, N-(2-aminoethyl)-3-(6-fluoro-1H-indol-3-yl)-5-methoxybenzene-sulfonamide], for which the IC50 turned out to be 4300 nM. `NCCCN1CCN(S(=O)(=O)c2ccc(-c3c[nH]c4cc(F)ccc34)cc2)CC1=O` [Example 152, 1-(3-aminopropyl)-4-((4-(6-fluoro-1H-indol-3-yl)phenyl-)sulfonyl)piperazin-2-one] gave an IC50 of 1320 nM.

As for `NCCN1CCN(S(=O)(=O)c2ccc(-c3c[nH]c4cc(F)ccc34)cc2)CC1=O` [Example 148, 1-(2-aminoethyl)-4-((4-(6-fluoro-1H-indol-3-yl)phenyl)sulfonyl)piperazin-2-one], inhibition was half-maximal at 570 nM (IC50). Consider `O=S(=O)(c1ccc(-c2c[nH]c3cc(F)ccc23)cc1)N1CCN[C@@H](CO)C1` [Example 17, (R)-(4-((4-(6-fluoro-1H-indol-3-yl)phenyl)sulfonyl)piperazin-2-yl)methanol], for which the IC50 worked out at 200 nM. With `O=C1CCCN1CC1(O)CCCN(S(=O)(=O)c2ccc(-c3c[nH]c4cc(F)ccc34)cc2)C1` (stereo not shown) [Example 132, 1-((1-((4-(6-fluoro-1H-indol-3-yl)phenyl)sulfonyl)-3-hydroxypiperidin-3-yl)methyl)pyrrolidin-2-one] the figure was 83000 nM; with `O=S(=O)(c1ccc(-c2c[nH]c3cc(F)ccc23)cc1)N1CCOC[C@H]1CO` [Example 115, (R)-(4-((4-(6-fluoro-1H-indol-3-yl)phenyl)sulfonyl)morpholin-3-yl)methanol], 133 nM; with `NC(=O)CCNS(=O)(=O)c1ccc(-c2c[nH]c3cc(F)ccc23)cc1CO` [Example 167, 3-((4-(6-fluoro-1H-indol-3-yl)-2-(hydroxymethyl)-phenyl)sulfonamido)propanamide], 41 nM. For `Cc1cc(-c2c[nH]c3cc(F)ccc23)cc(C)c1S(=O)(=O)N1CCNCC1` [Example 71, 3-(3,5-dimethyl-4-(piperazin-1-ylsulfonyl)phenyl)-6-fluoro-1H-indole], half-maximal inhibition (IC50) was put at 450 nM. Molecule `O=S(=O)(c1ccc(-c2c[nH]c3cc(F)ccc23)cc1)N1CC(CO)C1` [Example 63, (1-((4-(6-fluoro-1H-indol-3-yl)phenyl)sulfonyl)-azetidin-3-yl)methanol] returned an IC50 of 170 nM. `CS(=O)(=O)N1CCN(S(=O)(=O)c2ccc(-c3c[nH]c4cc(F)ccc34)cc2)CC1` [Example 19, 6-fluoro-3-(4-((4-(methylsulfonyl)piperazin-1-yl)sulfonyl)phenyl)-1H-indole] registered an IC50 of 1000 nM. In turn, `Cc1nccn1CC1(O)CCN(S(=O)(=O)c2ccc(-c3c[nH]c4cc(F)ccc34)cc2)C1` (stereo not shown) [Example 131, 1-((4-(6-fluoro-1H-indol-3-yl)phenyl)sulfonyl)-3-((2-methyl-1H-imidazol-1-yl)methyl)pyrrolidin-3-ol] showed an IC50 of 90000 nM. Turning to `O=S(=O)(c1ccc(-c2c[nH]c3cc(F)ccc23)cc1)N(CCO)CCCO` [Example 117, 4-(6-fluoro-1H-indol-3-yl)-N-(2-hydroxyethyl)-N-(3-hydroxypropyl)benzenesulfonamide], the IC50 was found to be 109 nM. Regarding `CN(CCCC(N)=O)S(=O)(=O)c1ccc(-c2c[nH]c3cc(F)ccc23)cc1` [Example 54, 4-(4-(6-fluoro-1H-indol-3-yl)-N-methylphenylsulfonamido)-butanamide], half-maximal inhibition (IC50) required 250 nM. `N[C@H]1CN(C(=O)CCNS(=O)(=O)c2ccc(-c3c[nH]c4cc(F)ccc34)cc2)C[C@@H]1F` [Example 105, (−)-N-(3-((3S,4S)-3-amino-4-fluoropyrrolidin-1-yl)-3-oxopropyl)-4-(6-fluoro-1H-indol-3-yl)benzenesulfonamide] registered an IC50 of 220 nM.
